In PubChem BioAssay AID2060333 (Molecular Pharmacology Branch, DTP, NCI, 2025):

Test system: 845751-090-R-J2-PDC tumor spheroid viability
Experiment: Anticancer human tumor 845751-090-R-J2-PDC patient-derived head and neck squamous carcinoma cell line growth inhibition [IpAb]
Conditions: spheroids with HUVEC and MSC; for IC50: curve of first compound; for viability, T/C: stronger effect = lower value; active = viability on the fitted dose curve at most 10% of control; inactive = the rest
Procedure, shortened: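 Combinations with ipatasertib or abemaciclib were tested on tumour spheroids holding HUVEC (25%) and MSC (15%) alongside 60% malignant cells. Top concentration was at or near clinical Cmax (10 microM if undefined), descending in half-log steps.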

[1] = second compound 0.01 µM, first compound 0.0316 µM
[2] = second compound 0.01 µM, first compound 0.1 µM
[3] = second compound 0.01 µM, first compound 0.316 µM
[4] = second compound 0.01 µM, first compound 1 µM
[5] = second compound 0.01 µM, first compound 3.16 µM
[6] = second compound 0.01 µM, first compound 10 µM
[7] = second compound 0.0316 µM, first compound 0.0316 µM
[8] = second compound 0.0316 µM, first compound 0.1 µM
[9] = second compound 0.0316 µM, first compound 0.316 µM
[10] = second compound 0.0316 µM, first compound 1 µM
[11] = second compound 0.0316 µM, first compound 3.16 µM
[12] = second compound 0.0316 µM, first compound 10 µM
[13] = second compound 0.1 µM, first compound 0.0316 µM
[14] = second compound 0.1 µM, first compound 0.1 µM
[15] = second compound 0.1 µM, first compound 0.316 µM
[16] = second compound 0.1 µM, first compound 1 µM
[17] = second compound 0.1 µM, first compound 3.16 µM
[18] = second compound 0.1 µM, first compound 10 µM
[19] = second compound 0.316 µM, first compound 0.0316 µM
[20] = second compound 0.316 µM, first compound 0.1 µM
[21] = second compound 0.316 µM, first compound 0.316 µM
[22] = second compound 0.316 µM, first compound 1 µM
[23] = second compound 0.316 µM, first compound 3.16 µM
[24] = second compound 0.316 µM, first compound 10 µM
[25] = second compound 1 µM, first compound 0.0316 µM
[26] = second compound 1 µM, first compound 0.1 µM
[27] = second compound 1 µM, first compound 0.316 µM
[28] = second compound 1 µM, first compound 1 µM
[29] = second compound 1 µM, first compound 3.16 µM
[30] = second compound 1 µM, first compound 10 µM
[31] = second compound 0.01 µM, first compound 0.00949 µM
[32] = second compound 0.01 µM, first compound 0.03 µM
[33] = second compound 0.01 µM, first compound 0.0949 µM
[34] = second compound 0.01 µM, first compound 0.3 µM
[35] = second compound 0.0316 µM, first compound 0.00949 µM
[36] = second compound 0.0316 µM, first compound 0.03 µM
[37] = second compound 0.0316 µM, first compound 0.0949 µM
[38] = second compound 0.0316 µM, first compound 0.3 µM
[39] = second compound 0.1 µM, first compound 0.00949 µM
[40] = second compound 0.1 µM, first compound 0.03 µM
[41] = second compound 0.1 µM, first compound 0.0949 µM
[42] = second compound 0.1 µM, first compound 0.3 µM
[43] = second compound 0.316 µM, first compound 0.00949 µM
[44] = second compound 0.316 µM, first compound 0.03 µM
[45] = second compound 0.316 µM, first compound 0.0949 µM
[46] = second compound 0.316 µM, first compound 0.3 µM
[47] = second compound 1 µM, first compound 0.00949 µM
[48] = second compound 1 µM, first compound 0.03 µM
[49] = second compound 1 µM, first compound 0.0949 µM
[50] = second compound 1 µM, first compound 0.3 µM
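Also: spheroids exposed to compounds for 7 days before readout.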
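For viability, T/C in this document: CTG3D luminescence normalised so that 100% = DMSO vehicle control.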

C=CC(=O)N1CCN(c2nc(=O)n(-c3c(C)ccnc3C(C)C)c3nc(-c4c(O)cccc4F)c(F)cc23)C(C)C1 (stereo not given) + CCN1CCN(Cc2ccc(Nc3ncc(F)c(-c4cc(F)c5nc(C)n(C(C)C)c5c4)n3)nc2)CC1
1690 nM: IC50 (second compound 0.1 µM)
inactive: viability, T/C [1] 95.2% | viability, T/C [2] 96.3% | viability, T/C [3] 102% | viability, T/C [4] 82.3% | viability, T/C [5] 53.7% | viability, T/C [6] 46.9% | viability, T/C [7] 64% | viability, T/C [8] 84.3% | viability, T/C [9] 70.9% | viability, T/C [10] 66% | viability, T/C [11] 43.3% | viability, T/C [12] 31.7% | viability, T/C [13] 67.2% | viability, T/C [14] 115% | viability, T/C [15] 74.6% | viability, T/C [16] 56.1% | viability, T/C [17] 46% | viability, T/C [18] 27.2% | viability, T/C [19] 61.5% | viability, T/C [20] 67.9% | viability, T/C [21] 72.5% | viability, T/C [22] 55.7% | viability, T/C [23] 43% | viability, T/C [24] 16.9% | viability, T/C [25] 62.6% | viability, T/C [26] 62.4% | viability, T/C [27] 72.2% | viability, T/C [28] 59.9% | viability, T/C [29] 45.4% | viability, T/C [30] 28.4%
1870 nM: IC50 (second compound 0.316 µM)
5850 nM: IC50 (second compound 0.01 µM)
2250 nM: IC50 (second compound 0.0316 µM) | IC50 (second compound 1 µM)

CC(=O)c1c(C)c2cnc(Nc3ccc(N4CCNCC4)cn3)nc2n(C2CCCC2)c1=O + CCN1CCN(Cc2ccc(Nc3ncc(F)c(-c4cc(F)c5nc(C)n(C(C)C)c5c4)n3)nc2)CC1
> 300 nM: IC50 (second compound 0.01 µM) | IC50 (second compound 0.0316 µM) | IC50 (second compound 0.1 µM) | IC50 (second compound 0.316 µM) | IC50 (second compound 1 µM)
inactive: viability, T/C (second compound 0.01 µM, first compound 0.000949 µM) 115% | viability, T/C (second compound 0.01 µM, first compound 0.003 µM) 93.8% | viability, T/C [31] 84.8% | viability, T/C [32] 91% | viability, T/C [33] 93.4% | viability, T/C [34] 76.7% | viability, T/C (second compound 0.0316 µM, first compound 0.000949 µM) 77.2% | viability, T/C (second compound 0.0316 µM, first compound 0.003 µM) 62.8% | viability, T/C [35] 63.6% | viability, T/C [36] 73.9% | viability, T/C [37] 65.5% | viability, T/C [38] 59.2% | viability, T/C (second compound 0.1 µM, first compound 0.000949 µM) 49.8% | viability, T/C (second compound 0.1 µM, first compound 0.003 µM) 71.8% | viability, T/C [39] 75.4% | viability, T/C [40] 71.2% | viability, T/C [41] 75.9% | viability, T/C [42] 65.8% | viability, T/C (second compound 0.316 µM, first compound 0.000949 µM) 53.1% | viability, T/C (second compound 0.316 µM, first compound 0.003 µM) 69.7% | viability, T/C [43] 88% | viability, T/C [44] 81.7% | viability, T/C [45] 61% | viability, T/C [46] 50.6% | viability, T/C (second compound 1 µM, first compound 0.000949 µM) 90.4% | viability, T/C (second compound 1 µM, first compound 0.003 µM) 86.4% | viability, T/C [47] 99.5% | viability, T/C [48] 77.7% | viability, T/C [49] 70.9% | viability, T/C [50] 53.6%

CC(C)(C)c1cnc(CSc2cnc(NC(=O)C3CCNCC3)s2)o1 + CCN1CCN(Cc2ccc(Nc3ncc(F)c(-c4cc(F)c5nc(C)n(C(C)C)c5c4)n3)nc2)CC1
38.4 nM: IC50 (second compound 1 µM)
active: viability, T/C [34] 1.28% | viability, T/C (second compound 0.01 µM, first compound 0.949 µM) 1.21% | viability, T/C (second compound 0.01 µM, first compound 3 µM) 1.79% | viability, T/C [38] 1.59% | viability, T/C (second compound 0.0316 µM, first compound 0.949 µM) 0.68% | viability, T/C (second compound 0.0316 µM, first compound 3 µM) 0.88% | viability, T/C [42] 1.77% | viability, T/C (second compound 0.1 µM, first compound 0.949 µM) 0.43% | viability, T/C (second compound 0.1 µM, first compound 3 µM) 0.69% | viability, T/C [46] 0.79% | viability, T/C (second compound 0.316 µM, first compound 0.949 µM) 0.67% | viability, T/C (second compound 0.316 µM, first compound 3 µM) 0.6% | viability, T/C [49] 3.89% | viability, T/C [50] 2.43% | viability, T/C (second compound 1 µM, first compound 0.949 µM) 1.4% | viability, T/C (second compound 1 µM, first compound 3 µM) 0.76%
71.4 nM: IC50 (second compound 0.0316 µM)
inactive: viability, T/C [31] 112% | viability, T/C [32] 91.9% | viability, T/C [33] 55% | viability, T/C [35] 92.8% | viability, T/C [36] 102% | viability, T/C [37] 34.5% | viability, T/C [39] 90.5% | viability, T/C [40] 69.6% | viability, T/C [41] 27.7% | viability, T/C [43] 76% | viability, T/C [44] 57.9% | viability, T/C [45] 11.5% | viability, T/C [47] 62% | viability, T/C [48] 63.1%
51.2 nM: IC50 (second compound 0.1 µM)
36.5 nM: IC50 (second compound 0.316 µM)
97.3 nM: IC50 (second compound 0.01 µM)

Cn1nccc1Nc1nccc(-c2ccn(C(CO)c3ccc(Cl)c(F)c3)c(=O)c2)n1 (stereo not given) + CCN1CCN(Cc2ccc(Nc3ncc(F)c(-c4cc(F)c5nc(C)n(C(C)C)c5c4)n3)nc2)CC1
inactive: viability, T/C [1] 185% | viability, T/C [2] 202% | viability, T/C [3] 192% | viability, T/C [4] 227% | viability, T/C [5] 198% | viability, T/C [6] 135% | viability, T/C [7] 143% | viability, T/C [8] 191% | viability, T/C [9] 216% | viability, T/C [10] 211% | viability, T/C [11] 169% | viability, T/C [12] 133% | viability, T/C [13] 154% | viability, T/C [14] 190% | viability, T/C [15] 181% | viability, T/C [16] 204% | viability, T/C [17] 185% | viability, T/C [18] 132% | viability, T/C [19] 156% | viability, T/C [20] 178% | viability, T/C [21] 210% | viability, T/C [22] 204% | viability, T/C [23] 174% | viability, T/C [24] 106% | viability, T/C [25] 161% | viability, T/C [26] 211% | viability, T/C [27] 224% | viability, T/C [28] 215% | viability, T/C [29] 171% | viability, T/C [30] 86.3%
> 10000 nM: IC50 (second compound 0.01 µM) | IC50 (second compound 0.0316 µM) | IC50 (second compound 0.1 µM) | IC50 (second compound 0.316 µM) | IC50 (second compound 1 µM)
